Some results are limits rather than exact numbers.

The record followed here is patent US20110245284A1, “Alkoxy- and Alkylthio-Substituted Anilinopyrimidines” (Bayer CropScience AG, priority 2008, published 2011).

One series relates to Leptosphaeria nodorum. The series is described as follows: Leptosphaeria nodorum test (wheat) / protective. In kind it is in vivo. The note with it: Parastagonospora nodorum, active compound concentration 500 ppm, evaluation 7-9 days after inoculation, read-out: efficacy. As to the method: Thereafter, the plants are placed in a greenhouse at 90% relative atmospheric humidity and a temperature of 22° C.

Another series deals with Pyricularia oryzae. The series is described as follows: whole plant or invertebrate. Type of series: in vivo. The settings on record: 120 h, read-out: efficacy.
A further series deals with Rhizoctonia solani. The series is described as follows: Rhizoctonia test (rice) / protective. The note with it: 96 h, active compound concentration 250 ppm, evaluation 4 days after inoculation, read-out: efficacy. Type of series: in vivo.
A short description of series [1]: logP by LC-MS on reversed-phase columns (C 18), method [b], acidic range pH 2.7. Type of series: physicochemical. The note with it: pH 2.7, log p. How it is done:
(§1) The logP values were determined in accordance with EEC Directive 79/831 Annex V.A8 by HPLC (High Performance Liquid Chromatography) on reversed-phase columns (C 18), using the methods below:
[b] The LC-MS determination in the acidic range is carried out at pH 2.7 using the mobile phases 0.1% aqueous formic acid and acetonitrile (contains 0.1% formic acid), linear gradient from 10% acetonitrile to 95% acetonitrile.

Series [2] is described as follows: logP by HPLC on reversed-phase columns (C 18), method [a], acidic range pH 2.3. In kind it is physicochemical. How it is done: as §1
[a] The determination is carried out in the acidic range at pH 2.3 using the mobile phases 0.1% aqueous phosphoric acid and acetonitrile, linear gradient from 10% acetonitrile to 95% acetonitrile.

The next series deals with Sphaerotheca fuliginea. The series is described as follows: Sphaerotheca test (cucumber) / protective. Type of series: in vivo. The note with it: Podosphaera fuliginea, 168 h, active compound concentration 500 ppm, evaluation 7 days after inoculation, read-out: efficacy. As to the method:
The plants are subsequently placed in a greenhouse at 70% relative atmospheric humidity and a temperature of 23° C.

Series [3] can be described thus: logP by LC-MS on reversed-phase columns (C 18), method [c], neutral range pH 7.8. Type of series: physicochemical. The settings on record: pH 7.8. How it is done:
as §1
[c] The LC-MS determination in the neutral range is carried out at pH 7.8 using the mobile phases 0.001 molar aqueous ammonium bicarbonate solution and acetonitrile, linear gradient from 10% acetonitrile to 95% acetonitrile.

For another series, the system named is Pyrenophora teres. The series is described as follows: Pyrenophora teres test (barley) / protective. The settings on record: 192 h, active compound concentration 500 ppm, evaluation 8 days after inoculation, read-out: efficacy. Type of series: in vivo. As to the method:
After the spray coating has dried on, the plants are sprayed with a spore suspension of Pyrenophora teres. The plants remain in an incubation cabinet for 48 hours at 20° C. and 100% relative atmospheric humidity.

For the next series, the system named is Alternaria solani. The series is described as follows: Alternaria test (tomato) / protective. The note with it: 72 h, active compound concentration 100 ppm, evaluation 3 days after inoculation, read-out: efficacy. Type of series: in vivo. How it is done: The plants are then placed in an incubation cabinet at about 20° C. and 100% relative atmospheric humidity.

With `CCC(C)Sc1cccc(Nc2ncc(Cl)c(NC3CCC3)n2)c1` (stereo not shown) [Example 6], the pest or weed control at 500 ppm with Leptosphaeria nodorum is not below 70%. Further, the pest or weed control at 250 ppm in the series with Pyricularia oryzae and in the series on Rhizoctonia solani was not below 80% throughout. Besides, the chromatographic logP – broadly, lipophilicity estimated from chromatographic retention – in series [1] was 4.14.

Take `CCCSc1cccc(Nc2ncc(Cl)c(NC(C)C)n2)c1` [Example 31, 5-Chloro-N^4-(propan-2-yl)-N^2-[3-(propylsulphanyl)phenyl]pyrimidine-2,4-diamine]: the chromatographic logP in series [2] (pH 2.3, logP (pH2.3)) was 3.27; in series [1] it was 3.3. Moreover, the pest or weed control at 500 ppm in the series on Sphaerotheca fuliginea and with Leptosphaeria nodorum was not below 70% throughout. Besides, the pest or weed control at 250 ppm in the series on Rhizoctonia solani is not below 80%.

Take `CCCS(=O)(=O)c1cccc(Nc2ncc(C(F)(F)F)c(NC3CCC3)n2)c1` [Example 34, N^4-Cyclobutyl-N^2-[3-(propylsulphonyl)phenyl]-5-(trifluoromethyl)pyrimidine-2,4-diamine]: the chromatographic logP in series [2] (pH 2.3, logP (pH2.3)) was 3.46; in [1], 3.46. The pest or weed control at 500 ppm in the series with Sphaerotheca fuliginea and in the series with Leptosphaeria nodorum was not below 70% in each case. In addition, in the series with Rhizoctonia solani, the pest or weed control at 250 ppm is not below 80%.

With `CCOCCOc1cc(Nc2ncc(C(F)(F)F)c(NC3CC3)n2)ccc1C` [Example 79], the pest or weed control at 500 ppm in the series with Sphaerotheca fuliginea and in the series on Leptosphaeria nodorum was not below 70% throughout. The pest or weed control at 250 ppm in the series on Pyricularia oryzae and in the series on Rhizoctonia solani was not below 80% each time. In addition, the chromatographic logP in series [1] turned out to be 3.66; in series [3], 4.15.

Consider `CCCS(=O)(=O)c1ccc(Nc2ncc(Cl)c(NC3CC3)n2)cc1` [Example 97], for which the pest or weed control at 500 ppm in the series on Leptosphaeria nodorum and in the series with Pyrenophora teres was not below 70% each time. The pest or weed control at 250 ppm in the series with Pyricularia oryzae is not below 80%. In addition, the chromatographic logP in [1] was 2.42; in [3], 2.76.

As for `CCC[S+]([O-])c1ccc(Nc2ncc(Cl)c(NC3CC3)n2)cc1` (stereo not shown) [Example 98], the pest or weed control at 500 ppm in the series with Sphaerotheca fuliginea, in the series with Leptosphaeria nodorum and with Pyrenophora teres was not below 70% each time. In addition, in the series with Pyricularia oryzae, the pest or weed control at 250 ppm was not below 80%. The compound further showed a chromatographic logP in series [1] of 1.78.

On to `CC[S+]([O-])c1cccc(Nc2ncc(Cl)c(NC3CC3)n2)c1` (stereo not shown) [Example 114], for which the chromatographic logP in series [2] (pH 2.3, log p) was found to be 1.49; in series [1], 1.48; in [3] it was 2.11. Moreover, the pest or weed control at 500 ppm with Sphaerotheca fuliginea, in the series with Leptosphaeria nodorum and in the series on Pyrenophora teres was not below 70% throughout.

As to `CCCCS(=O)(=O)c1cccc(Nc2ncc(Br)c(NC3CCC3)n2)c1` [Example 151], the pest or weed control at 500 ppm with Leptosphaeria nodorum is not below 70%. Moreover, the pest or weed control at 250 ppm in the series on Pyricularia oryzae and in the series on Rhizoctonia solani was not below 80% in each case. The chromatographic logP worked out at 3.24 in series [1] and 3.88 in [3].

On to `CC(C)C[S+]([O-])c1cccc(Nc2ncc(Cl)c(NC3CC3)n2)c1` (stereo not shown) [Example 162], for which the pest or weed control at 100 ppm in the series on Alternaria solani is not below 70%. Also, the pest or weed control at 500 ppm with Leptosphaeria nodorum is not below 70%. In addition, the chromatographic logP came to 2.11 in series [1] and 2.81 in series [3].

In the case of `CCOCCSc1cccc(Nc2ncc(C(F)(F)F)c(NC3CC3)n2)c1` [Example 190], the pest or weed control at 500 ppm in the series with Sphaerotheca fuliginea, with Leptosphaeria nodorum and in the series on Pyrenophora teres was not below 70% in each case. Moreover, the figures for the chromatographic logP in [1] and in series [3] were 3.87 and 4.05, respectively.

Turning to `COCc1cccc(Nc2ncc(Cl)c(NC3CCC3C)n2)c1` (stereo not shown) [Example 207], the pest or weed control at 500 ppm in the series on Leptosphaeria nodorum was not below 70%. The pest or weed control at 250 ppm with Pyricularia oryzae and in the series on Rhizoctonia solani was not below 80% each time. The chromatographic logP is 2.44 in series [1] and 4 in series [3].
